The values below are quoted from earlier work in patent US20070275929A1, “Composition and method for controlling the transmission of noroviruses” (THE DIAL CORPORATION, priority 2006, published 2007).

This data set concerns norovirus. Conditions: alcohol alone.

For `CCO` [alcohol], the “contact time required to reduce norovirus populations by a factor of 3” value is 30 min.
